Measured values from ChEMBL document CHEMBL2203011, “Psammaplysin derivatives from the Balinese marine sponge Aplysinella strongylata” (J Nat Prod, 2012).
The source made the active and inactive calls. No cut-off for these calls is given here.

system: Plasmodium falciparum; assay: Antiplasmodial activity against chloroquine-sensitive Plasmodium falciparum 3D7 infected in erythrocytes assessed as growth inhibition at 10 uM incubated for 48 hrs by [3H]hypoxanthine incorporation assay; assay type: functional, organism-based

With `CCC(C)CCCCCCCCCCCCCCC(=O)NCCc1cc(Br)c(OCCCNC(=O)C2=NO[C@@]3(CC(Br)=C(OC)C(Br)=CO3)[C@H]2O)c(Br)c1` (some centres undefined) as the compound, how does the “growth inhibition (GI)” value read?
The value was “inactive”.

With `CCCCCCCCCCCCCCCCCC(=O)NCC(O)c1cc(Br)c(OCCCNC(=O)C2=NO[C@@]3(CC(Br)=C(OC)C(Br)=CO3)[C@H]2O)c(Br)c1` (some centres undefined) as the compound, how does the “growth inhibition (GI)” value read?
Its value is “inactive”.

Which “growth inhibition (GI)” value does the source give for `COC1=C(Br)C[C@]2(OC=C1Br)ON=C(C(=O)NCCCOc1c(Br)cc(C=O)cc1Br)[C@@H]2O` here?
Its value is “inactive”.

For `COC1=C(Br)C[C@]2(OC=C1Br)ON=C(C(=O)NCCCOc1c(Br)cc(C(O)CNC=C3C(=O)C=CC3=O)cc1Br)[C@@H]2O` (some centres undefined), which “growth inhibition (GI)” value is on record?
Its value is “Active”.

`COC1=C(Br)C[C@]2(OC=C1Br)ON=C(C(=O)NCCCOc1c(Br)cc(CCNC(=O)CCCCCCCCCCCCC(C)C)cc1Br)[C@@H]2O` was tested. Which “growth inhibition (GI)” value did it give?
The value was “inactive”.

Which “growth inhibition (GI)” value does the source give for `COC1=C(Br)C[C@]2(OC=C1Br)ON=C(C(=O)NCCCOc1c(Br)cc(CCNC(=O)CO)cc1Br)[C@@H]2O` here?
Its value is “inactive”.

Which “growth inhibition (GI)” value does the source give for `COC1=C(Br)C[C@]2(OC=C1Br)ON=C(C(=O)NCCCOc1c(Br)cc(C3CNC(=O)O3)cc1Br)[C@@H]2O` (some centres undefined) here?
The value was “inactive”.

Which “growth inhibition (GI)” value does the source give for `CCCCC/C=C\CCCCCCCCC(=O)NCCc1cc(Br)c(OCCCNC(=O)C2=NO[C@@]3(CC(Br)=C(OC)C(Br)=CO3)[C@H]2O)c(Br)c1` here?
Its value is “inactive”.

system: Plasmodium falciparum; assay: Antiplasmodial activity against chloroquine-sensitive Plasmodium falciparum 3D7 infected in erythrocytes assessed as growth inhibition incubated for 48 hrs by [3H]hypoxanthine incorporation assay; assay type: functional, organism-based

For `COC1=C(Br)C[C@]2(OC=C1Br)ON=C(C(=O)NCCCOc1c(Br)cc(C(O)CNC=C3C(=O)C=CC3=O)cc1Br)[C@@H]2O` (some centres undefined), which IC50 is on record?
The IC50 was 6.4 µM.
